This note sets out measurements from PubChem BioAssay (NCI).

Some test systems named below: SF-539 CNS; MALME-3M melanoma; OVCAR-5 ovarian; NCI-H226 lung; CCRF-CEM leukemia; HCC-2998 colon; LOX IMVI melanoma; UO-31 renal; OVCAR-4 ovarian; UACC-62 melanoma.
Assay in all cases: inhibition of tumour cell growth, NCI panel, 48 h

Structures are written as SMILES. Where “and” joins values, the source holds several entries; their conditions need not be identical. Identical values can stand only once.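 In this assay, cells in 96-well plates receive the compound at five concentrations for 48 hours. Endpoints are linearly interpolated between the surrounding concentrations. GI50 marks 50% less growth. TGI denotes the concentration required for complete inhibition of growth.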

Turning to `COc1cc(-c2nn(-c3cccc(NC(=O)CCN4CCN(Cc5ccccc5)CC4)c3)cc2-c2ccncc2)ccc1Cl`, the GI50 is 1.14 µM in the experiment on SF-539 CNS; 1.01 µM in the experiment with MALME-3M melanoma; 3.02 µM with OVCAR-5 ovarian; 2.91 µM in the experiment with NCI-H226 lung; 0.691 µM in the experiment with CCRF-CEM leukemia; 1.68 µM in the experiment with HCC-2998 colon. Besides, the GI50 in the experiment on LOX IMVI melanoma is 0.661 µM; in the experiment with UO-31 renal, 0.887 µM; in the experiment with OVCAR-4 ovarian it was 1.8 µM; with UACC-62 melanoma, 1.13 µM. Further, the TGI in the experiment with SF-539 CNS was 2.58 µM; with MALME-3M melanoma, 2.55 µM; with OVCAR-5 ovarian, more than 100 µM; in the experiment with NCI-H226 lung it was 47.7 µM; in the experiment with CCRF-CEM leukemia, more than 100 µM; in the experiment with HCC-2998 colon, 3.82 µM. In addition, the TGI in the experiment on LOX IMVI melanoma was 1.98 µM; with UO-31 renal, 6.56 µM; with OVCAR-4 ovarian, 41 µM; with UACC-62 melanoma it was 2.7 µM.
As for `FC(F)(F)c1cccc(-c2nn3ncccc3c2-c2ccnc(Nc3ccc4c(c3)OCCO4)n2)c1`, the GI50 with SF-539 CNS is more than 25 µM; in the experiment with MALME-3M melanoma, more than 25 µM; in the experiment with OVCAR-5 ovarian, more than 25 µM; with NCI-H226 lung it was 14.2 µM; in the experiment with CCRF-CEM leukemia it was 0.511 µM; with HCC-2998 colon, 13 µM. Moreover, the GI50 in the experiment on LOX IMVI melanoma was 10 µM; in the experiment on UO-31 renal, 3.68 µM; in the experiment on OVCAR-4 ovarian it was 10.3 µM; with UACC-62 melanoma, 15 µM. Besides, the TGI with SF-539 CNS, in the experiment on MALME-3M melanoma, in the experiment on OVCAR-5 ovarian, with NCI-H226 lung, in the experiment on CCRF-CEM leukemia and in the experiment on HCC-2998 colon was more than 25 µM in each case. Besides, the TGI in the experiment on LOX IMVI melanoma, with UO-31 renal, in the experiment with OVCAR-4 ovarian and with UACC-62 melanoma was more than 25 µM in each case.
Consider `CSc1ccc(C2=NN(C(C)=O)C(c3ccc(-c4ccc(Cl)cc4)o3)C2)cc1` (stereo not given), for which the GI50 in the experiment on SF-539 CNS was 60.2 µM; with MALME-3M melanoma, 43.2 µM; in the experiment with OVCAR-5 ovarian it was more than 100 µM; in the experiment with NCI-H226 lung it was 44.4 µM; with CCRF-CEM leukemia, 44.2 µM; with HCC-2998 colon, 47.1 µM. The GI50 with LOX IMVI melanoma is 32.8 µM; in the experiment with UO-31 renal, 28.5 µM; in the experiment with OVCAR-4 ovarian, 32.9 µM; in the experiment on UACC-62 melanoma, 20.1 µM. Moreover, the TGI in the experiment with SF-539 CNS, in the experiment on MALME-3M melanoma, in the experiment on OVCAR-5 ovarian, with NCI-H226 lung, with CCRF-CEM leukemia and in the experiment on HCC-2998 colon was more than 100 µM throughout. Besides, the TGI with LOX IMVI melanoma, with UO-31 renal, in the experiment on OVCAR-4 ovarian and in the experiment with UACC-62 melanoma was more than 100 µM in each case.
Regarding `COc1ccc(/C=C(/C)[N+](=O)[O-])cc1OC`, the GI50 is 2.08 µM and 2.22 µM in the experiment with SF-539 CNS; 1.69 µM and 0.38 µM in the experiment with MALME-3M melanoma; 4.12 µM and 5 µM with OVCAR-5 ovarian; 5.03 µM and 3.71 µM with NCI-H226 lung; 1.96 µM and 0.786 µM in the experiment on CCRF-CEM leukemia; 1.8 µM and 1.77 µM in the experiment with HCC-2998 colon. In addition, the GI50 with LOX IMVI melanoma was 1.6 µM and 1.15 µM; in the experiment with UO-31 renal, 1.74 µM and 1.61 µM; in the experiment with OVCAR-4 ovarian, 1.91 µM and 2.27 µM; in the experiment with UACC-62 melanoma, 1.78 µM and 1.72 µM. For the same molecule, the TGI in the experiment with SF-539 CNS is 3.94 µM and 4.7 µM; with MALME-3M melanoma, 3.89 µM and 1.56 µM; with OVCAR-5 ovarian it was 12.4 µM and 16.1 µM; in the experiment on NCI-H226 lung, 9.63 µM and 13.4 µM; with CCRF-CEM leukemia, 5.31 µM and 5.72 µM; in the experiment on HCC-2998 colon, 3.27 µM and 3.32 µM. Also, the TGI with LOX IMVI melanoma was 3.21 µM and 3.55 µM; with UO-31 renal, 3.26 µM and 3.23 µM; in the experiment with OVCAR-4 ovarian, 3.88 µM and 4.77 µM; with UACC-62 melanoma, 3.62 µM and 3.89 µM.
Consider `O=C1C(OCCOc2ccccc2)=C(OCCOc2ccccc2)C(=O)c2ccccc21`, for which the GI50 was more than 100 µM in the experiment with SF-539 CNS; 24.5 µM in the experiment with MALME-3M melanoma; more than 100 µM with OVCAR-5 ovarian; 22.1 µM in the experiment with NCI-H226 lung; more than 100 µM in the experiment with CCRF-CEM leukemia; 11.6 µM with HCC-2998 colon. Also, the GI50 in the experiment on LOX IMVI melanoma is 3.75 µM; in the experiment with UO-31 renal, 12.2 µM; in the experiment with OVCAR-4 ovarian, 7.1 µM; in the experiment on UACC-62 melanoma, 6.79 µM. The TGI with SF-539 CNS, in the experiment with MALME-3M melanoma, in the experiment on OVCAR-5 ovarian, with NCI-H226 lung, in the experiment with CCRF-CEM leukemia and in the experiment with HCC-2998 colon was more than 100 µM in each case. Also, the TGI in the experiment on LOX IMVI melanoma, in the experiment on UO-31 renal, in the experiment with OVCAR-4 ovarian and in the experiment on UACC-62 melanoma was more than 100 µM each time.
As for `C=CCC1(C)CCCN(Cc2ccccc2)C1=O` (stereo not given), the TGI with SF-539 CNS, with MALME-3M melanoma, with OVCAR-5 ovarian, in the experiment on NCI-H226 lung, in the experiment on CCRF-CEM leukemia and with HCC-2998 colon was more than 10 µM in each case. The TGI in the experiment with LOX IMVI melanoma, in the experiment with UO-31 renal, in the experiment on OVCAR-4 ovarian and with UACC-62 melanoma was more than 10 µM in each case.
Regarding `O=C(Nc1ccccc1OC(=O)c1ccccc1)c1ccccc1`, the GI50 was 22.8 µM in the experiment with SF-539 CNS; 14.5 µM in the experiment on MALME-3M melanoma; 51.5 µM in the experiment on OVCAR-5 ovarian; more than 100 µM in the experiment on NCI-H226 lung; 5.87 µM in the experiment with CCRF-CEM leukemia; 30.1 µM in the experiment on HCC-2998 colon. Besides, the GI50 in the experiment with LOX IMVI melanoma was 3.92 µM; with UO-31 renal, 13.8 µM; in the experiment with OVCAR-4 ovarian, 18.7 µM; in the experiment on UACC-62 melanoma, 64.8 µM. Further, the TGI in the experiment on SF-539 CNS, with MALME-3M melanoma, in the experiment with OVCAR-5 ovarian, with NCI-H226 lung, in the experiment with CCRF-CEM leukemia and in the experiment with HCC-2998 colon was more than 100 µM each time. Besides, the TGI with LOX IMVI melanoma, with UO-31 renal, with OVCAR-4 ovarian and with UACC-62 melanoma was more than 100 µM each time.
